Tested on: ovarian cancer cell line 2774
Assay: thiazole blue colorimetric method, half inhibitory concentration on ovarian cancer cell line 2774
Format: cell-based

Structure (SMILES) | IC50 [µM]
CCC1(OC(=O)[C@H](Cc2ccccc2)NC(=O)OC(C)(C)C)C(=O)OCc2c1cc1n(c2=O)Cc2cc3cc(OC)ccc3nc2-1 (stereo partly drawn) [10-methoxycamptothecin-20-O—(N′-t-butoxycarbonyl)-L-phenylalanine ester] | 394 ± 21.7
CCC(=O)OC1(CC)C(=O)OCc2c1cc1n(c2=O)Cc2cc3cc(OC)ccc3nc2-1 (stereo not shown) [10-methoxycamptothecin-20-O-propionate] | 842 ± 50.1
CCC1(OC(=O)[C@H](C)NC(=O)OC(C)(C)C)C(=O)OCc2c1cc1n(c2=O)Cc2cc3cc(OC)ccc3nc2-1 (stereo partly drawn) [10-methoxycamptothecin-20-O—(N′-t-butoxycarbonyl)-L-alanine ester] | 46.7 ± 21.7
CCC1(OC(=O)[C@@H](NC(=O)OC(C)(C)C)C(C)C)C(=O)OCc2c1cc1n(c2=O)Cc2cc3cc(OC)ccc3nc2-1 (stereo partly drawn) [10-methoxycamptothecin-20-O—(N′-t-butoxycarbonyl)-L-valine ester] | 1970 ± 93.6
